Series [1] concerns clear cell renal cell carcinoma (ccRCC). The note with it: patients with ccRCC; cited from earlier work.
A further series relates to CTX-injured TA muscles. In words: Muscle regeneration after CTX-induced injury, intramuscular HIF-c2. The settings on record: for total number of Pax7+ SCs per TA muscle section: vs DMSO. How it is done: To induce Cre activity in mice with the Pax7^cre/ERT2 allele, tamoxifen (20 mg/ml in corn oil) was intraperitoneally administrated for 3 consecutive days (100 mg/Kg/day). To assess myofiber damage, 1% Evan's blue (4 ml/Kg in saline) was intraperitoneally administrated 1 day before the euthanasia. To trace proliferative cells, EdU (50 mg/Kg in DMSO) was intraperitoneally administrated 1 day before the euthanasia. For CTX-induced muscle injury, CTX (0.5 nmol in saline) was injected into TA muscle.
For staining muscle sections, muscle sections were fixed with 2% paraformaldehyde (PFA)/PBS for 10 mins, quenched with 50 mM glycine for 10 mins, permeabilized with 0.5% Triton X-100 for 10 mins. To reduce background fluorescence due to endogenous mouse IgG, Mouse on Mouse (M.O.M.) Blocking Reagent (Vector Lab) was used according to the manufactures' instruction. Muscle sections were blocked in 5% BSA/5% normal goat serum in PBS for 1 hr and incubated with primary antibodies: anti-Pax7 (1:5; DSHB), anti-HIF-2α (1:250; Novus Bio.), anti-HIF-1α (1:250; Novus Bio.), anti-Ki67 (1:1,000; Abcam), anti-Laminin B2 (1:1,000; Milipore), anti-embryonic MyHC (1:50, DSHB), anti-MyHC type I, IIA, or IIB (1:50, DSHB) overnight at 4° C. For EdU staining, Click-iT EdU Fluorescence Kit (Life technologies) was used according to the manufactures' instruction before the application of primary antibodies. Muscle sections were washed in PBS with 0.1% Tween-20, incubated with Alexa Fluor dye-labeled secondary antibodies at room temperature for 1 hr and washed. Sections were mounted with DAPI-containing mounting medium (Life technologies).
Peak isometric torque of the ankle dorsiflexors (tibialis anterior, extensor digitorum longus and extensor hallicus longus muscles) was assessed in vivo as previously described (47). Briefly, mice were anaesthetized with 1.75% isoflurane mixed with oxygen. The left hindlimb was depilated and aseptically prepared before the foot was placed into a foot plate attached to a servomoter (Model 300C-LR; Aurora Scientific, Aurora, Ontario, Canada). Two Pt-Ir electrode needles (Model E2-12; Grass Technologies, West Warwick, RI, USA) were inserted percutaneously on either side of the peroneal nerve. The ankle joint was secured at a 90° angle and body temperature was maintained at 37° C. throughout functional testing. Peak isometric torque was achieved by varying the current delivered to the peroneal nerve at a frequency of 200 Hz and a 0.1-ms square wave pulse. Torques (Nomm) were normalized by the body mass (kg^−1) to account for differences in body size among mice. Following peak isometric torque measurements, the dorsiflexors were subject to 100 electronically stimulated eccentric contractions in order to induce injury. During each contraction the foot was passively moved from the 0° position (perpendicular to tibia) to 20° of dorsiflexion. The dorsiflexors were stimulated at 200 Hz for a 100-ms isometric contraction followed by an additional 50 ms of stimulation while moving from 20° dorsiflexion to 20° plantarflexion at an angular velocity of 800°/s. Eccentric contractions were repeated every 10 seconds and the entire protocol lasted about […].
Muscle sections were stained with Sirius red solution (0.1% in picric acid) for 15 mins, washed with 1% acetic acid for 3 times. Sections were mounted with Cytoseal™ 60 mounting medium (Thermo Fisher Scientific), followed with imaging.
To investigate effects of HIF-2α inhibition on muscle regeneration, HIF-c2 or the carrier solution (1% DMSO) was administered into CTX-injured TA muscles of C57BL/6 mice (daily injections between 1-5 dpi; FIG. 5A). EdU was administrated in the same mice to trace cell proliferation.

The test system of another series is C2Cl2 myoblasts. Put plainly: RT-qPCR of HIF-2α and Spry1 mRNA in C2Cl2 myoblasts. The format is cell-based. The protocol: C2Cl2 myoblasts were transfected with pCMEGIP-HIF2αTM or control empty pCMEGIP plasmids using TransIT-X2 (Mirus Bio.). To differentiate C2Cl2 myoblasts, cells were cultured to reach 80% confluency and further cultured in DMEM (4.5 g/L glucose) medium supplemented with 2% horse serum for 5 days.
For measure relative expression levels, total RNA was isolated from C2Cl2 myoblasts using TRIzol or from FACS sorted satellite cells using PicoPure RNA Isolation Kit (Thermo Fisher Scientific). 1 μg total RNA from C2Cl2 myoblasts (or 0.2 μg total RNA from satellite cells) was used in 20 μl reverse transcription reactions (Maxima; Life technologies) and diluted into 100 μl. 2 μl diluted cDNA was used in 8 μl quantitative PCR reactions (SsoAdvanced™ Universal SYBR Green mix; Bio-Rad) on a BioRad CFX384™ Real-Time PCR Detection System. Cq-values were determined and expression values were calculated by BioRad CFX Manager™ Software. Relative expression values were normalized to inner reference genes Rps18 and Tbp of each biological sample. The following primers were used for quantifying expression levels: […]

Series [2] relates to CTX-injured tibialis anterior (TA) muscles of hypoxia-exposed mice. In words: Muscle regeneration after CTX injury under eubaric hypoxia. In kind it is in vivo, wildtype B6 mice. The note with it: hypoxia 17% pO2, 10 dpi. How it is done:
To gain insights on hypoxic effect on muscle regeneration, wildtype B6 mice (12-week old) were treated with eubaric hypoxia (17% pO2, 1 atm) in hypoxia chamber for 4 weeks and injected with CTX (0.5 nmol, 100 μL) into tibialis anterior (TA) muscles at day 18. Mice under normoxia (21% pO2, 1 atm) were injured with CTX as a control.
To assess if HIF-2α inhibition benefits regeneration under experimental hypoxia, HIF-2α inhibitor HIF-C2 (5 mg in 0.1% DMSO) or vehicle (0.1% DMSO) were intramuscularly administered to the injured muscles at days 2, 3 and 4 post-injury (2-4 dpi).

Series [3] concerns tibialis anterior (TA) muscles of mTR/Mdx mice. In words: Intramuscular HIF-C2 in dystrophic TA muscle of mTR/Mdx mice. In kind it is in vivo. How it is done:
To reveal the potential therapeutic effects of HIF-2α inhibition on muscular dystrophy, the HIF-2α inhibitor HIF-C2 was intramuscularly injected (5 mg/injection; total 3 doses on day 1, day 4, and day 7) into tibialis anterior (TA) muscles of mTR/Mdx mice (2nd generation; males: n=3 and females: n=3; 16-week old). The contralateral TA muscles received vehicle (0.1% DMSO) injections followed the same injection regime. HIF-C2 and vehicle-treated TA muscles were collected for histological examinations at 28 days after the first treatment.
To investigate whether HIF-C2 improves satellite cell function in mTR/Mdx mice, Pax7 (the definitive marker of satellite cells) and Ki67 (a proliferation marker) immunostaining were carried out on muscle cross-sections and the number of Pax7+pos cells (total number of satellite cells) and Pax7+pos/Ki67+pos cells (proliferative satellite cells) per muscle section were enumerated.
Muscle fibrosis is one of the characteristic pathological changes of Duchenne muscular dystrophy (Klingler et al., Acta Myol 31, 184-195 (2012)). […] Thus, Masson's trichrome staining was performed to reveal the amount of collagen in endomysium.

The next series has as its target HIF-2α PAS-B (Homo sapiens, UniProt Q99814). The settings on record: binds within the internal cavity of HIF-2α PAS-B; cited from earlier work.
The target in series [4] is full-length HIF-2 transcription factor (Homo sapiens, UniProt Q99814). The settings on record: cited from earlier work.
In a further series the test system is HIF-2. The note with it: living cells; cited from earlier work.
A further series concerns the target HIF-1 (Homo sapiens, UniProt Q16665). The note with it: selectivity for the HIF-2 isoform; cited from earlier work.
A further series concerns HIF-2α. The note with it: cited from earlier work.
Another series relates to HIF-1a. The note with it: cited from earlier work.
Series [5] deals with HIF-2α target genes in tumor cells. The note with it: cited from earlier work.
The next series relates to mouse xenograft models. The note with it: cited from earlier work.
Where [6] appears, read: shRNA expression in C2Cl2 myoblasts.

We go through five molecules from patent US12042507B2, “Compositions and methods of modulating HIF-2A to improve muscle generation and repair” (University of Georgia Research Foundation, Inc., priority 2017, dated 2024).

“Also recorded” adds a separate entry of the source.

Sequence of full-length HIF-2 transcription factor (Q99814 whole entry): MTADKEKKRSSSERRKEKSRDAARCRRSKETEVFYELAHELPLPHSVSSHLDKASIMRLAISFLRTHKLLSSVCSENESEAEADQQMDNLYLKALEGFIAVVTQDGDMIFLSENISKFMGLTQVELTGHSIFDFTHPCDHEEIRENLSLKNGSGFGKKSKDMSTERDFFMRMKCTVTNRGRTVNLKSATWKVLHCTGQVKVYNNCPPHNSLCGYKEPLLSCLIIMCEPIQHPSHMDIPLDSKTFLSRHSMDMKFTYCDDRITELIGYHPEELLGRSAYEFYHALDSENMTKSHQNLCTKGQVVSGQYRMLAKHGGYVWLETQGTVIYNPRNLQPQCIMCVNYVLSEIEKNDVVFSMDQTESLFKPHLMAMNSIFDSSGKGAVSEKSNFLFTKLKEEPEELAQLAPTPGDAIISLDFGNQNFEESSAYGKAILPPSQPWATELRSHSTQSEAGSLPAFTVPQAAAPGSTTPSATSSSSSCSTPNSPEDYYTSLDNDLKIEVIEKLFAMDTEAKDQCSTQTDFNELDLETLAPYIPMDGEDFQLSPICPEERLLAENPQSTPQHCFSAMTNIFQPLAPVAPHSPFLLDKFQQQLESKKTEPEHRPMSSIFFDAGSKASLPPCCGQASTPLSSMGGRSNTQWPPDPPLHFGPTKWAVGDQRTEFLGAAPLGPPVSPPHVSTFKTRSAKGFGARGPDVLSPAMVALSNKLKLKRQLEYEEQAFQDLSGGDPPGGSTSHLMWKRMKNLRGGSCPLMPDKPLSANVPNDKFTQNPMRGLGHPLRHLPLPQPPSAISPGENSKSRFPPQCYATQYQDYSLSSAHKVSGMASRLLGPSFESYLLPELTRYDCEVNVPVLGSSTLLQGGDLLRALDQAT
Sequence of HIF-2α PAS-B (Q99814 240-350 limits assumed): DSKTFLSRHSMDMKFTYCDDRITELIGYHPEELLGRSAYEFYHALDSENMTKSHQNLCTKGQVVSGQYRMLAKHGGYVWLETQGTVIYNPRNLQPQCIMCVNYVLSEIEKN
Sequence of HIF-1 (Q16665 whole entry, canonical isoform): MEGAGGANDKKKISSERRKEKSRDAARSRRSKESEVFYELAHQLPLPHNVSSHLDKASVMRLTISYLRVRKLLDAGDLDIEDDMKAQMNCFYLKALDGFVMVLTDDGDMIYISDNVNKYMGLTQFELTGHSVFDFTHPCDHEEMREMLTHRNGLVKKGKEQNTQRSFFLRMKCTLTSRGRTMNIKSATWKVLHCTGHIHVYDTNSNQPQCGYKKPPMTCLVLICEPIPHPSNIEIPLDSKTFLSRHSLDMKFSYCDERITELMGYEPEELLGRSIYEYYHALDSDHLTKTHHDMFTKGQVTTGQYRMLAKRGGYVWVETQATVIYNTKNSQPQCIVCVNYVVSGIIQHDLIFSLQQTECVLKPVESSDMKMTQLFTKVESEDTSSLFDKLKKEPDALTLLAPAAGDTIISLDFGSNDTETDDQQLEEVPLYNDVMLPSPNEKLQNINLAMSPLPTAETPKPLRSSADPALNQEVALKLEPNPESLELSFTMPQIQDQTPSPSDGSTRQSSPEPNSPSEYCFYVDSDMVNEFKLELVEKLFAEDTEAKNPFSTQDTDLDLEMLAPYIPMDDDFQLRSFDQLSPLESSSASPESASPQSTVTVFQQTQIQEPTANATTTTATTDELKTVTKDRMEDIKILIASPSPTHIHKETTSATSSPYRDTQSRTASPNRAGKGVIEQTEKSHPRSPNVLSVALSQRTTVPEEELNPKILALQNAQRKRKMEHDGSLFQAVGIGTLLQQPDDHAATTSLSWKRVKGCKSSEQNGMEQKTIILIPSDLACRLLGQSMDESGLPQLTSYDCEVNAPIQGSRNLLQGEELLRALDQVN

As for `CS(=O)(=O)c1ccc(Oc2cc(F)cc(C#N)c2)c2c1[C@H](O)C(F)(F)C2` [PT2385], the clinical activity result in [1] was “demonstrated clinical activity”.
On to `O=[N+]([O-])c1c(Nc2cc(F)cc(Cl)c2)ccc2nonc12` [HIF-C2, N-(3-chloro-5-fluorophenyl)-4-nitrobenzo[c][1,2,5]oxadiazol-5-amine], for which the “Pax7+/EdU+ activated SCs per TA muscle section” value in the series on CTX-injured TA muscles (3 dpi, vs 1% DMSO carrier) is given as “increased”. For the same molecule, in the series on CTX-injured TA muscles (7 dpi), the “expression of HIF-2α in treated muscle” value is recorded as “reduced”, the “expression of MyoD in treated muscle” value is reported as “reduced”, the “expression of eMyHC in treated muscle” value is “reduced” and the myofiber regeneration result was “improved”. In addition, the “total number of Pax7+ SCs per TA muscle section” value with CTX-injured TA muscles (7 dpi) was “increased”. The “recovery of the maximal torque measured before injury” value in the series with CTX-injured TA muscles (7 dpi, n=6, peroneal nerve stimulation) is reported as roughly 53%. Also, the “total number of Pax7+ SCs per TA muscle section” value with CTX-injured TA muscles (10 dpi) is recorded as “increased”. Further, in the series on CTX-injured TA muscles (30 dpi), the “fibrosis (Sirius red staining for collagen)” value is reported as “no overt sign of fibrosis”, the “myofiber cross sectional areas” value was “increased” and the “numbers of Pax7+ SCs vs control muscles” value is on record as “comparable numbers”. The “recovery of the strength (maximal torque)” value in the series with CTX-injured TA muscles (30 dpi, n=3) is roughly 90%. In the series on CTX-injured TA muscles (intramuscular, 5 mg/injection/day, 3 consecutive days), the “HIF-2α expression in muscle (including SCs)” value is given as “reduced HIF-2α expression”. For the same molecule, in the series with C2Cl2 myoblasts (HIF-c2 100 μM, C2Cl2 myoblasts), the “HIF-2α mRNA level” value is “unchanged” and the “Spry1 mRNA level” value is recorded as “decreased; also recorded: reduced”. In addition, in series [2], the “muscle regeneration under hypoxia” value is on record as “improved” and the “percentage of Ki67+ proliferating satellite cells” value is “improved satellite cell proliferation under hypoxia to a level better than the normoxic condition”. Besides, the “MuSC (Pax7+) number” value in series [2] (5 mg i.m. at 2-4 dpi, vs vehicle) is listed as “increased”. For the same molecule, in series [3] (female mTR/Mdx mice), the “total number of satellite cells (Pax7+pos) per muscle section” value is “elevated”. In [3] (female mTR/Mdx mice, 28 days post-treatment, vs control), the “number of proliferative satellite cells (Pax7+pos/Ki67+pos)” value was “comparable”. For the same molecule, in series [3] (male mTR/Mdx mice), the “number of centralized nuclei in a myofiber” value is “increased”, the “number of proliferative satellite cells (Pax7+pos/Ki67+pos)” value is given as “significantly increased” and the “total number of satellite cells (Pax7+pos) per muscle section” value was “significantly increased”. Also, the “myofiber cross-sectional area (CSA), ImageJ analysis” value in series [3] (males and females, 28 days after first treatment) is “increase of myofiber caliber”. In addition, in [3] (males and females, 28 days after first treatment, 5 mg/injection x3, vs vehicle), the “myofiber size (H&E staining)” value is on record as “larger myofibers”. Moreover, the “amount of collagen in endomysial space (Masson's trichrome staining)” value in series [3] (vs vehicle-treated control muscles) is on record as “remarkably reduced”. Besides, the Kd (commonly the concentration at which binding is half-saturated) on HIF-2α PAS-B was 81 nM. The “heterodimerization of the full-length HIF-2 transcription factor” value in series [4] is on record as “disrupts heterodimerization”. Moreover, in the series on HIF-2, the “HIF-2 DNA binding and transcription of its target genes” value is “disrupting HIF-2 DNA binding and inhibiting the transcription of its target genes”. In addition, the “activity to antagonize HIF-1” value on HIF-1 is on record as “no activity to antagonize HIF-1”.
As to `O=C(CCCCCCC(=O)Nc1ccccc1)NO` [Vorinostat], in the series on HIF-2α, the “reversal of epigenetic silencing of HIF-2α” value is “can reverse the epigenetic silencing of HIF-2α”. The “reversal of epigenetic silencing of HIF-1a” value in the series with HIF-1a is on record as “not HIF-1a”.
On to `CS(=O)(=O)c1ccc(Oc2cc(F)cc(C#N)c2)c2c1[C@H](O)[C@H](F)[C@@H]2F` [PT2977], for which the “expression of HIF-2α target genes” value in series [5] is on record as “inhibited”. The tumor regression entry in the series on mouse xenograft models is “induced regression”.

B1: HIF-2α shRNA #1: For HIF-2α knockdown, HIF-2α shRNA oligos ... cloned into pMSCV-P2GM retrovirus plasmids; HIF-2α shRNA #1 oligo (SEQ ID NO: 18) (nucleic acid)
DNA: TGCTGTTGACAGTGAGCGAACACTTGATGTGGAAACGTATTAGTGAAGCCACAGATGTAATACGTTTCCACATCAAGTGTGTGCCTACTGCCTCGGA
As to B1, in the series on C2Cl2 myoblasts (setting [6]), the “HIF-2α mRNA level” value was “reduced” and the “Spry1 mRNA level” value is reported as “reduced”.
